Patent US20230085307A1, “PYRIDAZINONE COMPOUND AND HERBICIDE” (NISSAN CHEMICAL CORPORATION, priority 2019, published 2023)

Experiments:
[1] = tested on: barnyard grass; test: Test Example 3: herbicidal effect by foliage application, Wagner pot (Table 18, symbol H); assay type: in vivo, barnyard grass (Echinochloa crus-galli)
Procedure, shortened: (§1)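 Plants were sown in alluvial soil held under 0.1–0.5 cm standing water and grown 14 days in a greenhouse at 25–30 °C. An emulsifiable formulation, water-diluted to the set dose, was then sprayed onto the foliage, and effects were scored three weeks later using previously defined criteria.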

[2] = tested on: Chinese sprangletop; test: Test Example 3: herbicidal effect by foliage application, Wagner pot (Table 18, symbol D); assay type: in vivo, chinese sprangletop (Leptochloa chinensis)
Procedure, shortened: as §1

[3] = tested on: rice flat sedge; test: Test Example 3: herbicidal effect by foliage application, Wagner pot (Table 18, symbol E); assay type: in vivo, rice flat sedge (Cyperus iria)
Procedure, shortened: as §1

[4] = tested on: southern crabgrass; test: Test Example 4: herbicidal effect by soil treatment (Table 19, symbol F); assay type: in vivo, southern crabgrass (Digitaria ciliaris)
Procedure, shortened: (§2)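 Applied as a water-diluted emulsion, the compound was sprayed onto soil covering newly sown seeds. Evaluation came three weeks after application, in a greenhouse held at 25° C. to 30° C.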

[5] = tested on: green foxtail; test: Test Example 4: herbicidal effect by soil treatment (Table 19, symbol G); assay type: in vivo, green foxtail (Setaria viridis)
Procedure, shortened: as §2

[6] = tested on: barnyard grass; test: Test Example 4: herbicidal effect by soil treatment (Table 19, symbol H); assay type: in vivo, barnyard grass (Echinochloa crus-galli)
Procedure, shortened: as §2

[7] = tested on: wild oat; test: Test Example 4: herbicidal effect by soil treatment (Table 19, symbol I); assay type: in vivo, wild oat (Avena fatua)
Procedure, shortened: as §2

[8] = tested on: blackgrass; test: Test Example 4: herbicidal effect by soil treatment (Table 19, symbol J); assay type: in vivo, blackgrass (Alopecurus myosuroides)
Procedure, shortened: as §2

[9] = tested on: Italian ryegrass; test: Test Example 4: herbicidal effect by soil treatment (Table 19, symbol K); assay type: in vivo, Italian ryegrass (Lolium multiflorum)
Procedure, shortened: as §2

[10] = tested on: windgrass; test: Test Example 4: herbicidal effect by soil treatment (Table 19, symbol L); assay type: in vivo, windgrass (Apera spica-venti)
Procedure, shortened: as §2

[11] = tested on: velvetleaf; test: Test Example 4: herbicidal effect by soil treatment (Table 19, symbol M); assay type: in vivo, velvetleaf (Abutilon theophrasti)
Procedure, shortened: as §2

[12] = tested on: redroot pigweed; test: Test Example 4: herbicidal effect by soil treatment (Table 19, symbol N); assay type: in vivo, redroot pigweed (Amaranthus retroflexus)
Procedure, shortened: as §2

[13] = tested on: lambsquarters; test: Test Example 4: herbicidal effect by soil treatment (Table 19, symbol O); assay type: in vivo, lambsquarters (Chenopodium album)
Procedure, shortened: as §2

[14] = tested on: chickweed; test: Test Example 4: herbicidal effect by soil treatment (Table 19, symbol P); assay type: in vivo, common chickweed (Stellaria media)
Procedure, shortened: as §2

[15] = tested on: false cleavers; test: Test Example 4: herbicidal effect by soil treatment (Table 19, symbol Q); assay type: in vivo, false cleavers (Galium spurium)
Procedure, shortened: as §2

[16] = tested on: persian speedwell; test: Test Example 4: herbicidal effect by soil treatment (Table 19, symbol R); assay type: in vivo, Persian speedwell (Veronica persica)
Procedure, shortened: as §2

[17] = tested on: southern crabgrass; test: Test Example 5: herbicidal effect by foliage application, plastic box (Table 20, symbol F); assay type: in vivo, southern crabgrass (Digitaria ciliaris); conditions: foliage application, 320 g/ha
Procedure, shortened: (§3)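 Sow seeds spot-wise in sterilized diluvial soil; cover with ~1.5 cm soil. Grow 14 days in greenhouse, 25° C. to 30° C. Spray foliage with emulsion diluted to predetermined amount. Rate effect after 3 weeks.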

[18] = tested on: green foxtail; test: Test Example 5: herbicidal effect by foliage application, plastic box (Table 20, symbol G); assay type: in vivo, green foxtail (Setaria viridis); conditions: foliage application, 320 g/ha
Procedure, shortened: as §3

[19] = tested on: barnyard grass; test: Test Example 5: herbicidal effect by foliage application, plastic box (Table 20, symbol H); assay type: in vivo, barnyard grass (Echinochloa crus-galli); conditions: foliage application, 320 g/ha
Procedure, shortened: as §3

[20] = tested on: wild oat; test: Test Example 5: herbicidal effect by foliage application, plastic box (Table 20, symbol I); assay type: in vivo, wild oat (Avena fatua); conditions: foliage application, 320 g/ha
Procedure, shortened: as §3

[21] = tested on: blackgrass; test: Test Example 5: herbicidal effect by foliage application, plastic box (Table 20, symbol J); assay type: in vivo, blackgrass (Alopecurus myosuroides); conditions: foliage application, 320 g/ha
Procedure, shortened: as §3

[22] = tested on: Italian ryegrass; test: Test Example 5: herbicidal effect by foliage application, plastic box (Table 20, symbol K); assay type: in vivo, Italian ryegrass (Lolium multiflorum); conditions: foliage application, 320 g/ha
Procedure, shortened: as §3

[23] = tested on: windgrass; test: Test Example 5: herbicidal effect by foliage application, plastic box (Table 20, symbol L); assay type: in vivo, windgrass (Apera spica-venti); conditions: foliage application, 320 g/ha
Procedure, shortened: as §3

[24] = tested on: velvetleaf; test: Test Example 5: herbicidal effect by foliage application, plastic box (Table 20, symbol M); assay type: in vivo, velvetleaf (Abutilon theophrasti); conditions: foliage application, 320 g/ha
Procedure, shortened: as §3

[25] = tested on: lambsquarters; test: Test Example 5: herbicidal effect by foliage application, plastic box (Table 20, symbol O); assay type: in vivo, lambsquarters (Chenopodium album); conditions: foliage application, 320 g/ha
Procedure, shortened: as §3

[26] = tested on: persian speedwell; test: Test Example 5: herbicidal effect by foliage application, plastic box (Table 20, symbol R); assay type: in vivo, Persian speedwell (Veronica persica); conditions: foliage application, 320 g/ha
Procedure, shortened: as §3

[27] = amount of applied herbicide 320 g/ha

Cc1nn(C)c(=O)c(-c2c(-c3ccc(CSCC(F)(F)F)cc3)sc3ccccc23)c1O [1-249]
herbicidal effect on H (barnyard grass), rating 0-5 ([1]; 320 g/ha): 5 (Herbicidal rate of 90% or more (almost completely withered))
herbicidal effect on D (Chinese sprangletop), rating 0-5 ([2]; 320 g/ha): 3 (Herbicidal rate of 40% or more and less than 70%)
herbicidal effect on E (rice flat sedge), rating 0-5 ([3]; 320 g/ha): 3 (Herbicidal rate of 40% or more and less than 70%)
F: southern crabgrass, herbicidal effect rating ([4]; AAH 320 g/ha): 0 (Herbicidal rate of 5% or less (almost no effect))
G: green foxtail, herbicidal effect rating ([5]; AAH 320 g/ha): 0 (Herbicidal rate of 5% or less (almost no effect))
H: barnyard grass, herbicidal effect rating ([6]; AAH 320 g/ha): 0 (Herbicidal rate of 5% or less (almost no effect))
I: wild oat, herbicidal effect rating ([7]; AAH 320 g/ha): 0 (Herbicidal rate of 5% or less (almost no effect))
J: blackgrass, herbicidal effect rating ([8]; AAH 320 g/ha): 0 (Herbicidal rate of 5% or less (almost no effect))
K: Italian ryegrass, herbicidal effect rating ([9]; AAH 320 g/ha): 3 (Herbicidal rate of 40% or more and less than 70%)
L: windgrass, herbicidal effect rating ([10]; AAH 320 g/ha): 0 (Herbicidal rate of 5% or less (almost no effect))
M: velvetleaf, herbicidal effect rating ([11]; AAH 320 g/ha): 0 (Herbicidal rate of 5% or less (almost no effect))
N: redroot pigweed, herbicidal effect rating ([12]; AAH 320 g/ha): 3 (Herbicidal rate of 40% or more and less than 70%)
O: lambsquarters, herbicidal effect rating ([13]; AAH 320 g/ha): 3 (Herbicidal rate of 40% or more and less than 70%)
P: chickweed, herbicidal effect rating ([14]; AAH 320 g/ha): 0 (Herbicidal rate of 5% or less (almost no effect))
Q: false cleavers, herbicidal effect rating ([15]; AAH 320 g/ha): 0 (Herbicidal rate of 5% or less (almost no effect))
R: persian speedwell, herbicidal effect rating ([16]; AAH 320 g/ha): 4 (Herbicidal rate of 70% or more and less than 90%)
effect on southern crabgrass (F) ([17]; 3 weeks after application): 4 (Herbicidal rate of 70% or more and less than 90%)
effect on green foxtail (G) ([18]; 3 weeks after application): 4 (Herbicidal rate of 70% or more and less than 90%)
effect on barnyard grass (H) ([19]; 3 weeks after application): 4 (Herbicidal rate of 70% or more and less than 90%)
effect on wild oat (I) ([20]; 3 weeks after application): 0 (Herbicidal rate of 5% or less (almost no effect))
effect on blackgrass (J) ([21]; 3 weeks after application): 0 (Herbicidal rate of 5% or less (almost no effect))
effect on Italian ryegrass (K) ([22]; 3 weeks after application): 4 (Herbicidal rate of 70% or more and less than 90%)
effect on windgrass (L) ([23]; 3 weeks after application): 0 (Herbicidal rate of 5% or less (almost no effect))
effect on velvetleaf (M) ([24]; 3 weeks after application): 5 (Herbicidal rate of 90% or more (almost completely withered))
effect on lambsquarters (O) ([25]; 3 weeks after application): 5 (Herbicidal rate of 90% or more (almost completely withered))
effect on persian speedwell (R) ([26]; 3 weeks after application): 5 (Herbicidal rate of 90% or more (almost completely withered))

CCSc1ccc(-c2oc3ccc(F)cc3c2-c2c(O)c(C)nn(C)c2=O)cc1 [9-039]
Herbicidal effect on H (barnyard grass), foliage application [1, 27]: 5 (Herbicidal rate of 90% or more (almost completely withered))
Herbicidal effect on D (Chinese sprangletop), foliage application [2, 27]: 1 (Herbicidal rate of 5% or more and less than 20%)
Herbicidal effect on E (rice flat sedge), foliage application [3, 27]: 5 (Herbicidal rate of 90% or more (almost completely withered))
F: southern crabgrass, herbicidal effect grade [4, 27]: 4 (Herbicidal rate of 70% or more and less than 90%)
G: green foxtail, herbicidal effect grade [5, 27]: 5 (Herbicidal rate of 90% or more (almost completely withered))
H: barnyard grass, herbicidal effect grade [6, 27]: 2 (Herbicidal rate of 20% or more and less than 40%)
I: wild oat, herbicidal effect grade [7, 27]: 0 (Herbicidal rate of 5% or less (almost no effect))
J: blackgrass, herbicidal effect grade [8, 27]: 0 (Herbicidal rate of 5% or less (almost no effect))
K: Italian ryegrass, herbicidal effect grade [9, 27]: 5 (Herbicidal rate of 90% or more (almost completely withered))
L: windgrass, herbicidal effect grade [10, 27]: 0 (Herbicidal rate of 5% or less (almost no effect))
M: velvetleaf, herbicidal effect grade [11, 27]: 3 (Herbicidal rate of 40% or more and less than 70%)
N: redroot pigweed, herbicidal effect grade [12, 27]: 5 (Herbicidal rate of 90% or more (almost completely withered))
O: lambsquarters, herbicidal effect grade [13, 27]: 4 (Herbicidal rate of 70% or more and less than 90%)
P: chickweed, herbicidal effect grade [14, 27]: 3 (Herbicidal rate of 40% or more and less than 70%)
Q: false cleavers, herbicidal effect grade [15, 27]: 0 (Herbicidal rate of 5% or less (almost no effect))
R: persian speedwell, herbicidal effect grade [16, 27]: 5 (Herbicidal rate of 90% or more (almost completely withered))
herbicidal effect on southern crabgrass (F) ([17]; three weeks after application): 5 (Herbicidal rate of 90% or more (almost completely withered))
herbicidal effect on green foxtail (G) ([18]; three weeks after application): 5 (Herbicidal rate of 90% or more (almost completely withered))
herbicidal effect on barnyard grass (H) ([19]; three weeks after application): 3 (Herbicidal rate of 40% or more and less than 70%)
herbicidal effect on wild oat (I) ([20]; three weeks after application): 4 (Herbicidal rate of 70% or more and less than 90%)
herbicidal effect on blackgrass (J) ([21]; three weeks after application): 4 (Herbicidal rate of 70% or more and less than 90%)
herbicidal effect on Italian ryegrass (K) ([22]; three weeks after application): 5 (Herbicidal rate of 90% or more (almost completely withered))
herbicidal effect on windgrass (L) ([23]; three weeks after application): 5 (Herbicidal rate of 90% or more (almost completely withered))
herbicidal effect on velvetleaf (M) ([24]; three weeks after application): 5 (Herbicidal rate of 90% or more (almost completely withered))
herbicidal effect on lambsquarters (O) ([25]; three weeks after application): 5 (Herbicidal rate of 90% or more (almost completely withered))
herbicidal effect on persian speedwell (R) ([26]; three weeks after application): 5 (Herbicidal rate of 90% or more (almost completely withered))
